Assay results from ChEMBL document CHEMBL4130341 (Medchemcomm, 2016).
pIC50: −log10 of the molar value. Active and inactive are the calls of the source. The rule behind the calls is not given here.

Experiments:
[1] = target: T1, Nuclear factor erythroid 2-related factor 2 (Mus musculus) (UniProt Q60795); assay: Ratio of CD for activation of Nrf2 in mutant mouse BpRc1 cells cytosolic fraction to CD for activation of Nrf2 in wild type mouse Hepa1c1c7 cells cytosolic fraction; type: cell-based
T1 sequence (whole entry): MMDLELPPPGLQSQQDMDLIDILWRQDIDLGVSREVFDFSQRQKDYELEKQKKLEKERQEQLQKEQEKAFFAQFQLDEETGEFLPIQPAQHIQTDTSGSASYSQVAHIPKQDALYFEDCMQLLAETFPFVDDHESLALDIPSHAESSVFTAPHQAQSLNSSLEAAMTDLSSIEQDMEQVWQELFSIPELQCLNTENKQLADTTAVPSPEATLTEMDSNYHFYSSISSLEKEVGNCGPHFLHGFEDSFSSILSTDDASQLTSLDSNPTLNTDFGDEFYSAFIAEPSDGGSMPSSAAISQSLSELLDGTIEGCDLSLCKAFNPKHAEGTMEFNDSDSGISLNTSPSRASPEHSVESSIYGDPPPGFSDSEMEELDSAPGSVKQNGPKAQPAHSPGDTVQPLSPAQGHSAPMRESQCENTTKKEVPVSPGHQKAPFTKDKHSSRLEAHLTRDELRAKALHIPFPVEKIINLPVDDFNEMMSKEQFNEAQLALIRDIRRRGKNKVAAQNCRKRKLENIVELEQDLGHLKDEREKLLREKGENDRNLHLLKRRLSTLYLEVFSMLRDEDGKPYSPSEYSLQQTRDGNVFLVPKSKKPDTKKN

Rattus norvegicus [2] = assay: In vivo induction of quinone reductase activity in Wistar rat colon cytosolic fraction at 15 mg/kg, po qd administered over 2 weeks using 2,6-DCIP as substrate relative to control; type: functional
[3] = target: T1, Nuclear factor erythroid 2-related factor 2 (Mus musculus); assay: Activation of Nrf2 in wild type mouse Hepa1c1c7 cells cytosolic fraction assessed as induction of quinone reductase activity using 2,6-DCIP as substrate in presence of NADH incubated for 48 hrs measured for 1 min
Rattus norvegicus [4] = assay: Toxicity in Wistar rat assessed as effect on behavior at 15 mg/kg, po qd administered over 2 weeks; type: organism-based; conditions: in vivo, 336 h
Rattus norvegicus [5] = assay: In vivo induction of quinone reductase activity in Wistar rat mammary gland cytosolic fraction at 15 mg/kg, po qd administered over 2 weeks using 2,6-DCIP as substrate relative to control; type: functional
[6] = target: T1, Nuclear factor erythroid 2-related factor 2 (Mus musculus); assay: Ratio of activation of wild type Nrf2 in mouse Hepa1c1c7 cells cytosolic fraction to activation of Nrf2 in mutant mouse BpRc1 cells cytosolic fraction; type: cell-based
Rattus norvegicus [7] = assay: In vivo induction of GST activity in Wistar rat colon cytosolic fraction at 15 mg/kg, po qd administered over 2 weeks by measuring GS-CDNB adduct formation using CDNB/GSH as substrate measured for 1 min relative to control; type: functional
Rattus norvegicus [8] = assay: In vivo induction of CYP450 activity in Wistar rat mammary gland microsomal fraction at 15 mg/kg, po qd administered over 2 weeks by measuring EROD activity using 7-ethoxyresorufine as substrate measured for 5 mins; type: ADME, organism-based; conditions: microsomes
[9] = Cytotoxicity against wild type mouse Hepa1c1c7 cells after 48 hrs by SRB assay; type: functional, cell-based; conditions: Hepa-1c1c7, 48 h
[10] = target: T1, Nuclear factor erythroid 2-related factor 2 (Mus musculus); assay: Activation of Nrf2 in mutant mouse BpRc1 cells cytosolic fraction assessed as induction of quinone reductase activity at 10 uM using 2,6-DCIP as substrate in presence of NADH incubated for 48 hrs measured for 1 min relative to control; type: cell-based
Rattus norvegicus [11] = assay: In vivo induction of CYP450 activity in Wistar rat liver microsomal fraction at 15 mg/kg, po qd administered over 2 weeks by measuring EROD activity using 7-ethoxyresorufine as substrate measured for 5 mins; type: ADME, organism-based; conditions: microsomes
[12] = target: T1, Nuclear factor erythroid 2-related factor 2 (Mus musculus); assay: Induction of Nrf2 nuclear translocation in mouse Hepa1c1c7 cells at 20 uM after 6 hrs by DAPI/Hoechst 33258 staining-based immunofluorescence method; type: cell-based
MCF7 = assay: Cytotoxicity against human MCF7 cells assessed as cell survival at 100 uM after 24 hrs by SRB assay relative to control; type: functional
[13] = target: T1, Nuclear factor erythroid 2-related factor 2 (Mus musculus); assay: Activation of Nrf2 in mutant mouse BpRc1 cells cytosolic fraction assessed as induction of quinone reductase activity using 2,6-DCIP as substrate in presence of NADH incubated for 48 hrs measured for 1 min; type: cell-based
[14] = Ratio of IC50 for cytotoxicity against wild type mouse Hepa1c1c7 cells to CD for activation of Nrf2 in wild type mouse Hepa1c1c7 cells cytosolic fraction
HK-2 = assay: Genotoxicity in human HK2 cells assessed as induction of DNA strand breakage at 20 uM after 6 hrs by DAPI staining based alkaline comet assay; type: toxicity, cell-based; conditions: hk-2, 6 h
Salmonella typhimurium = assay: Mutagenicity in Salmonella typhimurium TA98 in presence of mouse liver S9 fraction by Ames test; type: toxicity, organism-based; conditions: salmonella enterica subsp. enterica serovar typhimurium
[15] = Ratio of IC50 for cytotoxicity against mutant mouse BpRc1 cells to CD for activation of Nrf2 in mutant mouse BpRc1 cells cytosolic fraction
[16] = target: T1, Nuclear factor erythroid 2-related factor 2 (Mus musculus); assay: Activation of Nrf2 in wild type mouse Hepa1c1c7 cells cytosolic fraction assessed as induction of quinone reductase activity at 10 uM using 2,6-DCIP as substrate in presence of NADH incubated for 48 hrs measured for 1 min relative to control
TK-10 = assay: Cytotoxicity against human TK10 cells assessed as cell survival after 24 hrs by SRB assay; type: functional, cell-based; conditions: TK-10, 24 h
Rattus norvegicus [17] = assay: In vivo induction of quinone reductase activity in Wistar rat liver cytosolic fraction at 15 mg/kg, po qd administered over 2 weeks using 2,6-DCIP as substrate relative to control; type: functional
Rattus norvegicus [18] = assay: In vivo induction of GST activity in Wistar rat mammary gland cytosolic fraction at 15 mg/kg, po qd administered over 2 weeks by measuring GS-CDNB adduct formation using CDNB/GSH as substrate measured for 1 min relative to control; type: functional
[19] = Cytotoxicity against mutant mouse BpRc1 cells after 48 hrs by SRB assay; type: functional, cell-based; conditions: BPrc1, 48 h
Rattus norvegicus [20] = assay: Toxicity in Wistar rat assessed as effect on body weight at 15 mg/kg, po qd administered over 2 weeks; type: organism-based; conditions: in vivo, 336 h
Rattus norvegicus [21] = assay: In vivo induction of GST activity in Wistar rat liver cytosolic fraction at 15 mg/kg, po qd administered over 2 weeks by measuring GS-CDNB adduct formation using CDNB/GSH as substrate measured for 1 min relative to control; type: functional
Rattus norvegicus [22] = assay: In vivo induction of CYP450 activity in Wistar rat colon microsomal fraction at 15 mg/kg, po qd administered over 2 weeks by measuring EROD activity using 7-ethoxyresorufine as substrate measured for 5 mins; type: ADME, organism-based; conditions: microsomes

Work on `O=C(/C=C/c1cccnc1Br)c1ccccc1O` yielded a Ratio [1] of 0.71, an Activity (Rattus norvegicus [2]) of 11% and a CD [3] of 14 µM. For the same molecule, the Activity (Rattus norvegicus [4]) was “Non-Toxic”, the Activity (Rattus norvegicus [5]) was 13% and the Ratio [6] was 0.8. The Activity (Rattus norvegicus [7]) was 16%, the Activity (Rattus norvegicus [8]) was “Non-Toxic” and the pIC50 [9] was 4.41. The fold change (FC) [10] was 1.98, the Activity (Rattus norvegicus [11]) was “Non-Toxic” and the Activity [12] was “Active”. For the same molecule, the Activity (MCF7) was “Active”, the CD [13] was 10 µM and the Ratio [14] was 2.8. For the same molecule, the Activity (HK-2) was “Non-Toxic”, the Activity (Salmonella typhimurium) was “Non-Toxic” and the Ratio [15] was greater than 20. The fold change (FC) [16] was 1.57, the pIC50 (TK-10) was 4.59 and the Activity (Rattus norvegicus [17]) was 25%. The Activity (Rattus norvegicus [18]) was 10%, the pIC50 [19] was less than 3.70 and the Activity (Rattus norvegicus [20]) was “Non-Toxic”. For the same molecule, the Activity (Rattus norvegicus [21]) was 29% and the Activity (Rattus norvegicus [22]) was “Non-Toxic”.
